Laboratory results published in patent US20050260136A1, “Topical immune competency diagnostic compositions and methods of use” (priority 2004, published 2005).

How the values were obtained:
[1] = test system: HIV sero-positive AIDS patients; test: Topical DPC skin reaction test (Reactors/Non-Reactors) in a 28-day observational clinical trial; format: in vivo, human; conditions: for # Non-Reactor Patients / # Non-Reactor Patients (%) / # Reactor Patients / # Reactor Patients (%): right forearm
Protocol: (§1) For the examples, HIV sero-positive AIDS patients were tested based on HIV sero-positivity for a 28-day observational clinical trial. 40 subjects completed the study. Topical 0.1 ml applications of 0.4%, 0.2%, 0.1%, 0.05% Diphenylcyclopropenone in a proprietary anhydrous skin penetrating vehicle plus the vehicle placebo were made to the inner aspect of the forearms of patients and covered with a 1 inch adhesive bandage. Skin reactivity scores of a 4-point scaled based on induration and erythema were recorded weekly, as were side effects to the topical treatments.
For the examples, skin reaction scores were assigned using the following scale:
For the examples, patients having a skin reaction score of +2, +3 and +4 were considered to have a positive response and are labeled as “Reactors”; patients having a skin reaction score of 0 and +1 were considered to not have a response and are labeled as “Non-Reactors”.
Skin Reactions Scores as indicators of immune function responses following single applications of 0.4%, 0.2%, 0.1% and 0.05% DPC compositions were used to distinguish between patients with T Cell CD4 blood counts less than 300 per cu/mm and patients with T Cell CD4 counts higher than 300 per cu/mm.

[2] = test system: HIV sero-positive AIDS patients; test: Side effects of the topical treatments in the 28-day clinical trial; format: in vivo, human; conditions: 28-day study
Protocol: as §1
Subjects with CD4 counts less than 300 cu/mm were non-skin reactive. This was found in 36 of the 40 subjects. […] Statistical Sensitivity was 87.4% and Specificity was 100% with the 0.4% Topical Diphenylcyclopropenone Solution selected as the optimal dosage concentration. […] None of the subjects withdrew because of side effects.

[3] = 0.05% DPC applied, patients with CD4 <300 cu/mm
[4] = 0.05% DPC applied, patients with CD4 >300 cu/mm
[5] = 0.1% DPC applied, patients with CD4 <300 cu/mm
[6] = 0.1% DPC applied, patients with CD4 >300 cu/mm
[7] = 0.2% DPC applied, patients with CD4 <300 cu/mm
[8] = 0.2% DPC applied, patients with CD4 >300 cu/mm
[9] = 0.4% DPC applied, patients with CD4 <300 cu/mm
[10] = 0.4% DPC applied, patients with CD4 >300 cu/mm
[11] = combined 0.1% + 0.05% DPC dosages, patients with CD4 <300 cu/mm
[12] = combined 00.1% + 0.05% DPC dosages, patients with CD4 >300 cu/mm
[13] = combined 0.4% + 0.2% DPC dosages, patients with CD4 <300 cu/mm
[14] = combined 0.4% + 0.2% DPC dosages, patients with CD4 >300 cu/mm

O=c1c(-c2ccccc2)c1-c1ccccc1 [DPC, Diphenylcyclopropenone]
# Non-Reactor Patients [1, 3]: 2
# Non-Reactor Patients (%) [1, 3]: 100%
# Reactor Patients [1, 3]: 0 (0%)
# Reactor Patients (%) [1, 3]: 0 (0%)
# Non-Reactor Patients [1, 4]: 8
# Non-Reactor Patients (%) [1, 4]: 100%
# Reactor Patients [1, 4]: 0 (0%)
# Reactor Patients (%) [1, 4]: 0 (0%)
# Non-Reactor Patients [1, 5]: 2
# Non-Reactor Patients (%) [1, 5]: 100%
# Reactor Patients [1, 5]: 0 (0%)
# Reactor Patients (%) [1, 5]: 0 (0%)
# Non-Reactor Patients [1, 6]: 4
# Non-Reactor Patients (%) [1, 6]: 80%
# Reactor Patients [1, 6]: 1
# Reactor Patients (%) [1, 6]: 20%
# Non-Reactor Patients [1, 7]: 2
# Non-Reactor Patients (%) [1, 7]: 40%
# Reactor Patients (%) [1, 7]: 60%
# Non-Reactor Patients (%) [1, 8]: 28.6%
# Reactor Patients [1, 8]: 5
# Reactor Patients (%) [1, 8]: 71.4%
# Non-Reactor Patients (%) [1, 9]: 100%
# Reactor Patients (%) [1, 9]: 0 (0%)
# Non-Reactor Patients ([1]; 0.4% DPC applied, patients with CD4 <300 cu/mm, Non-Reactor = score 0 or +1): 4
# Non-Reactor Patients (%) [1, 10]: 14.3%
# Reactor Patients [1, 10]: 6
# Reactor Patients (%) [1, 10]: 85.7%
subjects in whom skin reactivity agreed with CD4 count (>300 cu/mm reactive, <300 cu/mm non-skin reactive) ([1]; all 40 subjects of the study): 36 of the 40
Non-Reactors [1, 11]: 4
Non-Reactors (%) [1, 11]: 100%
Reactors [1, 11]: 0 (0%)
Reactors (%) [1, 11]: 0 (0%)
Non-Reactors [1, 12]: 12
Non-Reactors (%) [1, 12]: 92.3%
Reactors [1, 12]: 1
Reactors (%) [1, 12]: 7.7%
Non-Reactors [1, 13]: 6
Non-Reactors (%) [1, 13]: 67%
Reactors [1, 13]: 3
Reactors (%) [1, 13]: 33%
Non-Reactors [1, 14]: 3
Non-Reactors (%) [1, 14]: 21.4%
Reactors [1, 14]: 11
Reactors (%) [1, 14]: 78.6%
subjects who withdrew because of side effects ([2]; 40 subjects): None
Side effects ([2]; topical 0.1 ml applications of 0.05-0.4% DPC): minimal and were limited to adenopathies that were self-limited and disappeared upon completion of the study
